We go through 5 compounds from ChEMBL document CHEMBL1201862, “PubChem BioAssay data set” (2004).

The source made the active and inactive calls.

The target of assay [1] is T1, Tyrosine-protein phosphatase non-receptor type 7 (Homo sapiens, UniProt P35236).
T1 sequence (P35236 whole entry): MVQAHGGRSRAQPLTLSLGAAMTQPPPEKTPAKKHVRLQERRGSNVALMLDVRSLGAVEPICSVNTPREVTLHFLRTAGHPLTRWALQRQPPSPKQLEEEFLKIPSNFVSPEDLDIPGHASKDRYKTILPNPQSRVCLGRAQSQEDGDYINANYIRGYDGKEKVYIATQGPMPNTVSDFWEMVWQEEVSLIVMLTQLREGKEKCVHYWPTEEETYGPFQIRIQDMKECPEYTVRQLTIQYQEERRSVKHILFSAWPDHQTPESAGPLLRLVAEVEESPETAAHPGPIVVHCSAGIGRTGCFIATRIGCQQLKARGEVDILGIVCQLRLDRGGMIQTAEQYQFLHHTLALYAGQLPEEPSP
Description: SAR analysis of chemical inhibitors of HePTP using a Fluorescent assay - Set 2. [Related pubchem assays (depositor defined):AID1059, AID1077, AID1661, AID2085, AID521]. The class given is functional.

The target of assay [2] is Dual specificity protein phosphatase 3 (Homo sapiens, UniProt P51452). As to the kind of experiment: SAR VHR1 Fluorescent Assay for In Vitro dose response studies Set 2. [Related pubchem assays (depositor defined):AID1654, AID1661, AID1878]. Type of assay: functional.
Assay [3] can be described thus: cells. The class given is functional, cell-based.
Another assay deals with T-cell. Description: loss of vesicle association with mouse CD8+ T cells – mouse 2C CD8+ T cells, flow cytometry, dose response (AID 485284). Type of assay: functional.
The next assay concerns the target Integrin alpha-L (Mus musculus, UniProt P24063). Description: modulators of CD8 T cell-vesicle binding, dose response, powder samples, mouse 2C CD8+ cells (AID 504565). The class given is functional.
A short description of assay [4]: cells. The class given is functional, cell-based. The source holds these as a separate data set.
The target of assay [5] is T2, Cannabinoid receptor 1 (Homo sapiens, UniProt P21554). Description: SAR analysis of antagonists of the Cannabinoid Receptor 1 using an Image-Based Assay - Set 3. [Related pubchem assays (depositor defined):AID1961, AID1965]. Type of assay: functional.
Assay [6] has as its target T3, Cannabinoid receptor 2 (Homo sapiens, UniProt P34972). Description: SAR analysis of agonists of the Cannabinoid Receptor 2 using an Image-Based Assay - Set 2. [Related pubchem assays (depositor defined):AID1961, AID1965]. Type of assay: functional.
For assay [7], the target named is T4, G-protein coupled receptor 35 (Homo sapiens, UniProt Q9HC97). Description: SAR analysis of Antagonists of the GPR35 Receptor using an Image-Based Assay - Set 4. [Related pubchem assays (depositor defined):[…]]. Type of assay: functional.
Assay [8] addresses T2, Cannabinoid receptor 1. Description: SAR analysis of agonists of the Cannabinoid Receptor 1 using an Image-Based Assay - Set 3. [Related pubchem assays (depositor defined):AID1961, AID1965]. Type of assay: functional.
The target in assay [9] is G-protein coupled receptor 55 (Homo sapiens, UniProt Q9Y2T6). Description: SAR analysis of selective Agonists of GPR55 using an Image-Based Assay - Set 2. [Related pubchem assays (depositor defined):AID1961, AID1965]. The class given is functional.
Assay [10] has as its target T3, Cannabinoid receptor 2. As to the kind of experiment: SAR analysis of antagonists of the Cannabinoid Receptor 2 using an Image-Based Assay - Set 2. [Related pubchem assays (depositor defined):AID1961, AID1965]. Type of assay: functional.
Assay [11] addresses T4, G-protein coupled receptor 35. Description: SAR analysis of Agonists of the GPR35 Receptor using an Image-Based Assay - Set 3. [Related pubchem assays (depositor defined):AID1961, AID1965]. Type of assay: functional.
The test system of assay [12] is HEK293. As to the kind of experiment: cells. The following applies: Homo sapiens. Type of assay: functional, cell-based.
In assay [13] the target is Nucleotide-binding oligomerization domain-containing protein 2 (Homo sapiens, UniProt Q9HC29). As to the kind of experiment: inhibition of NOD2-driven NF-kB reporter – cell-based, luminescence, uHTS, HEK293 (AID 1566). The class given is functional.
Assay [14] concerns HEK293. Description: cells. The following applies: Homo sapiens. Type of assay: functional, cell-based. This is another data set of the same source.
Assay [15] has as its system HEK293. Description: inhibition of NOD1-driven NF-kB reporter – cell-based, luminescence, uHTS, primary screen (AID 1578). The class given is functional. The note with it: Homo sapiens.
Assay [16] has as its system HEK293. As to the kind of experiment: NOD2 signaling inhibitors in MDP-stimulated cells, cell-based, uHTS, luminescence (AID 2001). Type of assay: functional. The note with it: Homo sapiens.
The subject of assay [17] is HEK293. Description: cells. The following applies: Homo sapiens. The class given is functional, cell-based. This is another data set of the same source.
The subject of assay [18] is Vero. Description: Vero 76 cell viability after compound exposure – Vero 76 cells, synthesized analogs, cytotoxicity control for West Nile virus antiviral project, SAR follow-up (AID 2414). Type of assay: functional. The note with it: Chlorocebus sabaeus.
The test system of assay [19] is Vero. As to the kind of experiment: Vero cell viability after compound exposure – synthesized analogs, set II, cytotoxicity control for West Nile virus antiviral project, SAR follow-up (AID 2402). The class given is functional. The following applies: Chlorocebus sabaeus.
For assay [20], the system named is Vero. Description: antiviral protection of cells from WNV – synthesized analogs, SAR follow-up (AID 2238). Type of assay: functional, cell-based. The following applies: Chlorocebus sabaeus.
Assay [21] deals with Vero. As to the kind of experiment: host cell viability loss, Vero E6 – synthesized analogs, cytotoxicity control for West Nile virus antiviral project, SAR follow-up (AID 2244). The class given is functional. The note with it: Chlorocebus sabaeus.

T4 sequence (Q9HC97 whole entry): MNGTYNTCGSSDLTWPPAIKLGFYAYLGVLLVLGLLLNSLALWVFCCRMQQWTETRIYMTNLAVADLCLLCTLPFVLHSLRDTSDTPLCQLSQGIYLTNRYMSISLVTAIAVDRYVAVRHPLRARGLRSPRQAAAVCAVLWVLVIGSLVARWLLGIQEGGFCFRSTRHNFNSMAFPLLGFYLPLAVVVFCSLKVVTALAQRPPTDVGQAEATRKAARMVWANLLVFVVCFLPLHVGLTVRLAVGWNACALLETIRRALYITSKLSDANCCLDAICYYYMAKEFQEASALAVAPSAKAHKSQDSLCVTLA
T2 sequence (P21554 whole entry): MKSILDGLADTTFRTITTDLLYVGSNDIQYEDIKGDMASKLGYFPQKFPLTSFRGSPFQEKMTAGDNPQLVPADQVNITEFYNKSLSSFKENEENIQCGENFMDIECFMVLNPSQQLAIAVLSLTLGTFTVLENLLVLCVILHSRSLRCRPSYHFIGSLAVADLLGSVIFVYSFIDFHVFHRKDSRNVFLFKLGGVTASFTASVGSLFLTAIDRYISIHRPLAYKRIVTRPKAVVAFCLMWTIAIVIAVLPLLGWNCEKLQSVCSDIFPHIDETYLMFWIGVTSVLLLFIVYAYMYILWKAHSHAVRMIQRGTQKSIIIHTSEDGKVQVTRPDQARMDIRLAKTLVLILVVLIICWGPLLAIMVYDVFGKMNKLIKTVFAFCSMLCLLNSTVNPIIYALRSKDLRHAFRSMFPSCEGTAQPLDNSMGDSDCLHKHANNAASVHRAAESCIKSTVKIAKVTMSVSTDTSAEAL
T3 sequence (P34972 whole entry): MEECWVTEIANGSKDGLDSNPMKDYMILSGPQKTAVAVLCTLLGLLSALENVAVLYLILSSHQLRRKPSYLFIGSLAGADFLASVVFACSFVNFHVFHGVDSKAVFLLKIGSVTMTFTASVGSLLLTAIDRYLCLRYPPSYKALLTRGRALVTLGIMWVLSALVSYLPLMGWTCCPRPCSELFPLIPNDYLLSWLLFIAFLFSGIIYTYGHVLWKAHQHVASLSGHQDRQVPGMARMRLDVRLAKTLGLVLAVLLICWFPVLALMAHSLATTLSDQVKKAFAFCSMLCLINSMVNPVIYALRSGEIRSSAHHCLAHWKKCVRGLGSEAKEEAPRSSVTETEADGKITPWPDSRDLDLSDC
Nucleotide-binding oligomerization domain-containing protein 2, sequence (Q9HC29 whole entry, the tested form may be a part): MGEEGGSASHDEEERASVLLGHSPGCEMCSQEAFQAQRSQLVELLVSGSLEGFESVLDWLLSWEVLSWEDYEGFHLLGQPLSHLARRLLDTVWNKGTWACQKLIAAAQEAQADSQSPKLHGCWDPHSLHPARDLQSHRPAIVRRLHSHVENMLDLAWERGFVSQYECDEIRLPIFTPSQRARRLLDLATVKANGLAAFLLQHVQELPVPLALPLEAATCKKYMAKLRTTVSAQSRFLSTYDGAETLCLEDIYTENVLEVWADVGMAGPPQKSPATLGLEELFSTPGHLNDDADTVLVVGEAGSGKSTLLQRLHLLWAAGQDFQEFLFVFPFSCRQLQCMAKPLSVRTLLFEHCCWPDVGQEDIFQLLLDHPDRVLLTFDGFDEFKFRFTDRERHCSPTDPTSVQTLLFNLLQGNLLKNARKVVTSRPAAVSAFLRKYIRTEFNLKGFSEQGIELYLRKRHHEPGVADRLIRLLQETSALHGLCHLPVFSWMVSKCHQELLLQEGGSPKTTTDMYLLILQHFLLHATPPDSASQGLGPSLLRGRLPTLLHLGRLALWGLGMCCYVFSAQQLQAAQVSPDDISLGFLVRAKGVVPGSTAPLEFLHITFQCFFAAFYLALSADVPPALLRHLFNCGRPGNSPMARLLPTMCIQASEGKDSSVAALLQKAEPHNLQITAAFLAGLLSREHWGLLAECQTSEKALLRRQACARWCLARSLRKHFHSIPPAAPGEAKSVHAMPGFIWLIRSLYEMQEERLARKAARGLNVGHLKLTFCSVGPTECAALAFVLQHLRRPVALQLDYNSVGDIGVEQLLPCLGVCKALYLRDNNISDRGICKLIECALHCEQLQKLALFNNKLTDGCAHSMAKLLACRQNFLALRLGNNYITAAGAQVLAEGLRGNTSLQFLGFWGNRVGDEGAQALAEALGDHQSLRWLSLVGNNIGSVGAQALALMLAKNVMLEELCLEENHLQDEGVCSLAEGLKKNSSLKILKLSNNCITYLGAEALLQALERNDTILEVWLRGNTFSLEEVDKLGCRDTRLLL
Integrin alpha-L, sequence (P24063 whole entry): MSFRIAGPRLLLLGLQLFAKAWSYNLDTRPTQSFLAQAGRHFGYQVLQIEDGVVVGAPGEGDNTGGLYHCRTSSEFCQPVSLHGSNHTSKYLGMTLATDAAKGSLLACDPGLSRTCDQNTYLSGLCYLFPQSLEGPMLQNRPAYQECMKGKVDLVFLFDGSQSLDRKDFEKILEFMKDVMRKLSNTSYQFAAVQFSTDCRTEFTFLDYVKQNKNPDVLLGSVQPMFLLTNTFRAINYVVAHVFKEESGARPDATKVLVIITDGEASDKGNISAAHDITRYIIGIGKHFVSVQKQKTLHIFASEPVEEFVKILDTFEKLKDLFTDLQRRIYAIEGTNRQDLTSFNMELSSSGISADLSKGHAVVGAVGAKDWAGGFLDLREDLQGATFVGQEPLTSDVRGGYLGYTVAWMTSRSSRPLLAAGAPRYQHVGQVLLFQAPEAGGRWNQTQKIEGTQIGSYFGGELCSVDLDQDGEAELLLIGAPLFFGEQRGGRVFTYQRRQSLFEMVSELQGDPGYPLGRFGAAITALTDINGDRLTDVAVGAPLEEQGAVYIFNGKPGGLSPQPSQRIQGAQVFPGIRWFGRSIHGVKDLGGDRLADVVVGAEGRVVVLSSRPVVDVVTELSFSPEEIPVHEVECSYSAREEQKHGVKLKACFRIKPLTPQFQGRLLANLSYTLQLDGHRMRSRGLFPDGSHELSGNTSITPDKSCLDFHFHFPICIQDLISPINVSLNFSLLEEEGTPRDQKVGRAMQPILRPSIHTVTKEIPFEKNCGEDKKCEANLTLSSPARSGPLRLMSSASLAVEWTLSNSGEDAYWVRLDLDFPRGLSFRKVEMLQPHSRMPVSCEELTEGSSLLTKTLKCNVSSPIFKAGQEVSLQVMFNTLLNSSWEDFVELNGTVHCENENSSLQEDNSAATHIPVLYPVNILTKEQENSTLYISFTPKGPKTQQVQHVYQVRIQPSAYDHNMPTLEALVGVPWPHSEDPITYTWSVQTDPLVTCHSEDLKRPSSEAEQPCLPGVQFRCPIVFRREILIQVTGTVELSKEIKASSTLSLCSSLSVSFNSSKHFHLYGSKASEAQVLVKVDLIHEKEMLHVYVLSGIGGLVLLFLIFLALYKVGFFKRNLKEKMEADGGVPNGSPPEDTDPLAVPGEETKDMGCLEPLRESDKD
G-protein coupled receptor 55, sequence (Q9Y2T6 whole entry): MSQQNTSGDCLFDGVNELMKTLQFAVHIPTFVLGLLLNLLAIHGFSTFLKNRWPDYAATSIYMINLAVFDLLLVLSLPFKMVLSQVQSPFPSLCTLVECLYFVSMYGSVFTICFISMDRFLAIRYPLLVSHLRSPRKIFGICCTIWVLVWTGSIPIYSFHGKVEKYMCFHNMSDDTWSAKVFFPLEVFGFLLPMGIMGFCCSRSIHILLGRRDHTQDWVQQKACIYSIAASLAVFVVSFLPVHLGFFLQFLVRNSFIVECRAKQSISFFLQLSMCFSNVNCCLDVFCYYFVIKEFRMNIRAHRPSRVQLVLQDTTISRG
Dual specificity protein phosphatase 3, sequence (P51452 whole entry): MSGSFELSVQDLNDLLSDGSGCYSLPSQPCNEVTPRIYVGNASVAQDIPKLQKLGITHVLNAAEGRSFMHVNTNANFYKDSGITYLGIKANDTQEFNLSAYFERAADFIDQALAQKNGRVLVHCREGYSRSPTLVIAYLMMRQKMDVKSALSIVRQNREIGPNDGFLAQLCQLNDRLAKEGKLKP

Usually IC50 stands for the concentration that gives 50% inhibition. With `Fc1ccc(CNC(=S)c2ccc(Br)cc2)cc1C(F)(F)F`, the IC50 in assay [1] is 23.4 µM (active); in [2] it was 19.3 µM (active).

The term EC50 denotes the concentration needed to bring the measured effect to its halfway point. Take `CCOCC(=O)Nc1ccc(S(=O)(=O)N2CCC(c3nc4ccccc4[nH]3)CC2)cc1`: the EC50 in the assay “cells [3]” was > 350 µM (not active); in the assay with T-cell, 1.37 µM (active); on Integrin alpha-L, 246 nM (active); in the assay “cells [4]”, > 350 µM (not active).

With `CN(C)S(=O)(=O)c1ccc(N2CCCC2)c(C(=O)N2CCN(c3cccc(Cl)c3)CC2)c1`, the IC50 at Cannabinoid receptor 1 [5] is 27.1 µM (inactive); in [7], > 32 µM (inactive); at Cannabinoid receptor 2 [10], > 32 µM (inactive). The EC50 on Cannabinoid receptor 2 [6] is > 32 µM (inactive); at Cannabinoid receptor 1 [8], > 32 µM (inactive); in assay [9], 608 nM (active); in [11] it was > 32 µM (inactive).

As to `Cc1c(C(=O)N2CCN(c3ccc(F)cc3)CC2)sc2ncnc(N3CCN(c4ccccn4)CC3)c12`, the IC50 is 4.81 µM (active) with HEK293 [12], 11.9 µM (active) in the assay on HEK293 [14], 7.42 µM (inactive) in the assay with HEK293 [16] and 16.8 µM (active) in the assay with HEK293 [17]. The EC50 was 4.24 µM (active) in assay [13] and 5.71 µM (active) with HEK293 [15].

By CC50 is commonly meant the concentration that lowers cell viability or growth by half. As for `O=C(CSc1nc2ccccc2c(=O)n1-c1ccc(Cl)c(Cl)c1)Nc1ccc2c(c1)CCC2`, the 50% cytotoxic concentration (CC50) in the assay with Vero [18] is > 66.6 µM (active); with Vero [19], > 100 µM (active); in the assay with Vero [21], > 40 µM (active). In addition, the IC50 in the assay with Vero [20] was 17.3 µM (active).
